Experimental data: US12578339B2, “Hexokinase 1 isoform B for use as a prognosis marker and specific target against cancer” (ISTANBUL MEDIPOL UNIVERSITESI, priority 2019, dated 2026)
Entries after “also recorded” stand apart in the source; their conditions may differ.

Tests used:
Type in all cases: cell-based, Human
A549 HK1b−/− cells [1] = experiment: Flow cytometric analysis of mTOR activation; settings: flow cytometry, HK1b deletion plus treatment, p=0.001
A549 HK1b−/− cells [2] = experiment: Cell viability assay (CellTiter-Blue); settings: 48 h treatment
Method: (§1) Twenty-four hours following seeding (15,000 cells/well) in a 96-well plate, A549 and A549 HK1b^−/− cells (70%-80% confluent) were treated with vehicle (PBS/Saline), or cisplatin with concentrations range from 0-100 μM/ml and the cells incubated for a further 48 h. The cell viability was determined using the CellTiter-Blue assay kit (Promega) according to the manufacturer's instructions and absorbance measured at 595 nm with a microplate reader (Model 3550, Bio-Rad Laboratories, CA, USA). IC50 was defined as the concentration causing a 50% reduction in absorbance relative to the negative control. IC50 was determined by non-linear regression analysis using Graphpad Prism v8 (Graphpad Software, CA, USA).

A549 WT cells [3] = experiment: Cell viability assay (CellTiter-Blue); settings: A549 WT control group, 48 h treatment
Method: as §1

A549 HK1b−/− cells [4] = experiment: Seahorse Mito Stress Test (OCR); settings: between treated A549 WT and A549 HK1b−/− cells
Method: (§2) For Seahorse XFe96 assays, cells were seeded at pre-optimized final concentration 1.5×10^4 cells/well onto Seahorse XF-96-well plates and Glycolytic rate, Glycolysis stress and Mito Stress Tests were performed following the manufacturer's specifications (Seahorse Bioscience, North Billerica, MA). Each datum was determined minimally in triplicate. OCR and ECAR were reported as absolute rates (pmoles/min for OCR and mpH/min for ECAR) or normalized against cell counts, or expressed as a percentage of the baseline oxygen consumption.

A549 WT cells [5] = experiment: Seahorse Mito Stress Test (OCR); settings: treated A549 WT cells, p=0.02
Method: as §2

A549 HK1b−/− cells [6] = experiment: Flow cytometric quantification of cell death by propidium iodide staining; settings: IC50 concentration (47 μM), 48 hrs
A549 HK1b−/− cells [7] = experiment: Immunoblot analysis of apoptotic, autophagic and survival signaling
Method: (§3) Cells were harvested and washed in PBS solution, collected, and then subjected to lysis in RIPA buffer containing proteinase inhibitor cocktail and phosphatase inhibitor cocktail (Roche). The lysates were subjected to centrifugation at 10,000 g at 4 C for 20 minutes and the supernatants removed. The total protein ([…]) was fractioned by 10% SDS-PAGE and electrophoretically transferred to Immobilon-FL PVDF membranes. The membrane was blocked with blocking buffer (Li-Cor) at room temperature for 1 hour, and then incubated with appropriate primary antibody at 4 C overnight. After washing with PBS containing 0.05% […] (PBST), the membrane was incubated with 1:2500 dilutions of appropriate secondary antibody for 2 hours at room temperature. The membrane was washed with PBST again, and Pierce ECL Western Blotting Substrate (Thermo Scientific) was used for development of immunoreactive bands. For immunoblotting of tissue samples, proteins were extracted from tumor and adjacent non-tumor lung samples collected from human NSCLC patients, snap frozen in liquid nitrogen, and stored at −80° C. Then protein lysis buffer (described above) was added to samples. Samples were vortexed, homogenized and subjected to three freeze/thaw cycles in dry ice, centrifuged and supernatant collected, and stored at −80° C. for subsequent immunoblotting.

A549 WT cells [8] = experiment: as above
Method: as §3

A549 HK1b−/− cells [9] = experiment: Seahorse XF glycolysis stress test (ECAR); settings: treated A549 HK1b−/− cells
Method: as §2

N.N.[Cl][Pt][Cl] [cisplatin, Cisplatin] was tested, and the mTOR phosphorylation (A549 HK1b−/− cells [1]) was “significantly inhibits”, the IC50 (A549 HK1b−/− cells [2]) was 47 µM and the IC50 (A549 WT cells [3]) was 75 µM. For the same compound, the basal respiration rate (A549 HK1b−/− cells [4]) was “no significant change”, the spare respiratory capacity (A549 WT cells [5]) was “diminished” and the “cell death measured by propidium iodide (PI) staining” value (A549 HK1b−/− cells [6]) was “significantly enhance cell death”. For the same compound, the “induction of cleavage of PARP and caspase 3” value (A549 HK1b−/− cells [7]; A549 HK1b−/− cells compared with A549 WT) was “significantly higher”, the “autophagy induction (LC3II)” value (A549 HK1b−/− cells [7]; HK1b deletion plus treatment) was “induces greater autophagy” and the “phosphorylation of STAT3 transcription factor” value (A549 HK1b−/− cells [7]; HK1b deletion plus treatment) was “inhibit significantly”. For the same compound, the “AKT activation and its downstream target GSK3β” value (A549 HK1b−/− cells [7]; HK1b silencing in combination with treatment) was “totally inhibited”, the “beclin-1 and ATG13 expression levels” value (A549 HK1b−/− cells [7]; both A549 WT and A549 HK1b−/− cells) was “downregulated” and the “phosphorylation of mTOR” value (A549 HK1b−/− cells [7]; immunoblot, HK1b deletion plus treatment) was “inhibits significantly; also recorded: inhibits phosphorylation”. For the same compound, the AMPK phosphorylation (A549 HK1b−/− cells [7]; treated A549 HK1b−/− cells) was “totally inhibited”, the Bcl-2 expression (A549 HK1b−/− cells [7]; treated A549 HK1b−/− cells) was “down-regulation of Bcl-2 expression was significant” and the HK2 expression (A549 HK1b−/− cells [7]; treated A549 HK1b−/− cells) was “reduced”. For the same compound, the “cleavage of PARP and caspase 3” value (A549 WT cells [8]; immunoblot, A549 WT (and HK1b−/−) cells) was “induces cleavage of PARP and caspase 3”, the AMPK phosphorylation (A549 WT cells [8]; treated A549 WT cells) was “diminished” and the HK1 expression (A549 WT cells [8]; treated A549 WT cells) was “significantly upregulated”. The “basal glycolysis and glycolytic capacity (ECAR)” value (A549 HK1b−/− cells [9]) was “further reduction of basal glycolysis and glycolytic capacity even though not significant; also recorded: further reduced ablait not significant” and the glycolytic reserve (A549 HK1b−/− cells [9]) was “total absence”.
